Results on one compound are retold here after patent US20230357168A1, “CARBOBICYCLIC NUCLEOSIDES FOR TREATMENT OF VIRAL INFECTION” (The Chinese University of Hong Kong, priority 2022, published 2023).

For this assay, the system named is SARS-CoV-2 viral strains (including the original Wuhan strain and Delta and Omicron variants). Nature of the assay: Replication of SARS-CoV-2 viral strains in A549-ACE2 cell model (FIG. 2). In kind it is cell-based. As to conditions: done in triplicate.

Consider `O=c1[nH]/c(=N\O)ccn1[C@@H]1C2=CCC[C@@H](O)[C@@H]2[C@@H](O)[C@H]1O` [Compound 48, 4-(hydroxyimino)-1-((1R,2S,3R,3aR,4R)-2,3,4-trihydroxy-2,3,3a,4,5,6-hexahydro-1H-inden-1-yl)-3,4-dihydropyrimidin-2(1H)-one], for which the “replication of different SARS-CoV-2 viral strains” value was “inhibits the replication”.
